Here are results for five compounds from patent US7670784B2, “β-Benzyloxyaspartic acid derivatives having two substituents on their benzene rings” (Suntory Holdings Limited, priority 2004, dated 2010).

As a reminder, the IC50 is the concentration at which inhibition is half-maximal.

One experiment deals with glutamate transporters. As to conditions: Shimamoto et al., Mol. Pharmacol. 65, 2004; cited from earlier work.
A further experiment concerns the target T1, human EAAT2 (Homo sapiens, UniProt P43004).
T1 construct: expressed in transfected cells; host or cells: MDCK (Madin-Darby Canine Kidney) cells
Nature of the experiment: [14C]glutamate uptake inhibition in human EAAT2 constitutively expressed in MDCK cells. Format: cell-based. As to conditions: 1 μM L-[14C]glutamate, 12 minutes incubation. Here is the method:
(§1) According to the known method (Shimamoto, K. et al., Mol. Pharmacol. 53, 195-201, 1998; Bioorg. Med. Chem. Lett. 10, 2407-2410, 2000), the inhibitory effect against [^14C]glutamate uptake was measured in human EAAT2 or EAAT3 constitutively expressed in MDCK (Madin-Darby Canine Kidney) cells. Glutamate uptake activity was determined as follows: 1 μM L-[^14C]glutamate and a sample at a given concentration were added and incubated for 12 minutes, followed by solubilizing the cells to measure incorporated radioactivity with a liquid scintillator. The amount of uptake was expressed as a percentage, assuming that uptake in the absence of a test compound (buffer alone) was set to 100% and uptake in a sodium-free solution was set to 0%.

The target of the next experiment is T2, human EAAT3 (Homo sapiens, UniProt P43005).
T2 construct: expressed in transfected cells; host or cells: MDCK (Madin-Darby Canine Kidney) cells
T2 sequence (P43005 1-524): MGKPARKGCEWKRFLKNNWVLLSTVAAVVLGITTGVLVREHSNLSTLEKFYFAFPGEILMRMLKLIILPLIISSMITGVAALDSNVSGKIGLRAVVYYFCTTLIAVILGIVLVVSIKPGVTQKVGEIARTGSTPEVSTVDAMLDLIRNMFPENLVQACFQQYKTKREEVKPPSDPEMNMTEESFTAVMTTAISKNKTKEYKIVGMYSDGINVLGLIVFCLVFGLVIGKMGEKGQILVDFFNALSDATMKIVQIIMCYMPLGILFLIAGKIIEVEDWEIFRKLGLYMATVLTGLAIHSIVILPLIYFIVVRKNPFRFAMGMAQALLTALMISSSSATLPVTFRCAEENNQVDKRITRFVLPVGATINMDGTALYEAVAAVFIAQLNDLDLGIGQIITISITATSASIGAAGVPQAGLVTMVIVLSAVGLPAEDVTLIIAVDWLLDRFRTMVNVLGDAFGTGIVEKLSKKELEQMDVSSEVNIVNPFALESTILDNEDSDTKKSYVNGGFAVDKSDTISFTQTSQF
Nature of the experiment: [14C]glutamate uptake inhibition in human EAAT3 constitutively expressed in MDCK cells. As to conditions: 1 μM L-[14C]glutamate, 12 minutes incubation. The experiment is classed as cell-based. Here is the method: as §1

T1 sequence (P43004 whole entry): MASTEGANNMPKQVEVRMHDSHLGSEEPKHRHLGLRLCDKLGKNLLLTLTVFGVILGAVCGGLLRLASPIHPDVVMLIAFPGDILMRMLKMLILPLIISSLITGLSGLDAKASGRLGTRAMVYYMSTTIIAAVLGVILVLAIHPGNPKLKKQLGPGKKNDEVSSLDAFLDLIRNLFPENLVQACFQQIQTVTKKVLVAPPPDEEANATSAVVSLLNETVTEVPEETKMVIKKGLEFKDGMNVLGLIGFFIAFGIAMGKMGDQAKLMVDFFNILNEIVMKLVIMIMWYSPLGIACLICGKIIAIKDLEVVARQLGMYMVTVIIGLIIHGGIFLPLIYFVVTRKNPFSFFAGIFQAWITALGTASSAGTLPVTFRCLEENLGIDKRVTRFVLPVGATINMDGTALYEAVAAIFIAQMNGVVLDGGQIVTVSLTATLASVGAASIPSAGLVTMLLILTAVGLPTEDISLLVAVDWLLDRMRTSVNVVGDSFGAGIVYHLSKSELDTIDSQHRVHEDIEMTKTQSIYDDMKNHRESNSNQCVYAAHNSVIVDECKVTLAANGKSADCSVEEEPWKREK

Take `N[C@H](C(=O)O)[C@H](OCc1cccc(NC(=O)c2ccc(C(F)(F)F)cc2)c1)C(=O)O` [TFB-TBOA]: the “IC50 value for uptake inhibitory activity” value with glutamate transporters is on record as “in the order of nM”.
Take `NCCOCCOCCOCCOCC(=O)NCCCCCC(=O)NCCCCCC(=O)Nc1cc(CO[C@H](C(=O)O)[C@H](N)C(=O)O)cc(NC(=O)c2ccc(C(F)(F)F)cc2)c1` [Compound 10, (2S,3S)-3-(3-(6-(6-(2-(2-(2-(2-(2-aminoethoxy)ethoxy)ethoxy)ethoxy)acetamido)hexanamido)hexanamido)-5-(4-(trifluoromethyl)benzamido)benzyloxy)aspartic acid]: the IC50 against human EAAT2 was 23 nM; at human EAAT3, 805 nM.
`N[C@H](C(=O)O)[C@H](OCc1ccccc1)C(=O)O` [L-TBOA, L-threo-β-benzyloxyaspartic acid, reference compound]: the IC50 against human EAAT2 and against human EAAT3 was 1300 nM in each case.
For `N[C@H](C(=O)O)[C@H](OCc1cc(NC(=O)c2ccc(C(F)(F)F)cc2)cc(NC(=O)c2ccc(C(F)(F)F)cc2)c1)C(=O)O` [Compound 11, (2S,3S)-3-{3,5-bis[4-(trifluoromethyl)benzamido]benzyloxy}aspartic acid], the IC50 against human EAAT2 came out at 1.3 nM; on human EAAT3, 0.46 nM.
Take `CCC(=O)Nc1cc(CO[C@H](C(=O)O)[C@H](N)C(=O)O)cc(NC(=O)c2ccc(C(F)(F)F)cc2)c1` [Compound 14, (2S,3S)-3-(3-propionylamido-5-[4-(trifluoromethyl)benzamido]benzyloxy)aspartic acid]: the IC50 against human EAAT2 amounted to 4.7 nM; on human EAAT3, 112 nM.
